Calls of active or inactive are those of the source.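 The calls were made as follows: active = fitted half-maximal concentration below 30 µM for cell fluorescence in pump-free yeast, so likely self-fluorescent; inactive = the rest.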
Assay: concentration-dependent intrinsic compound fluorescence, S. cerevisiae AD/pABC3, flow cytometry, Cherry Pick1 hits, artefact control for antifungal efflux pump inhibitor project, dose response (AID 588620);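 also: red emission of unstained cells excited at 488 nm measured in PE-Texas Red channel; cell median fluorescence as percent of DMSO wells so 100% equals vehicle baseline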
Details: S. cerevisiae AD/pABC3 compound autofluorescence, flow cytometry; at 33.1 µM (top of the series)

Row | SMILES | fluorescence response, % of control
1 | COc1cc2c(cc1OC)C(=O)N1[C@H]3c4cc(C)ccc4OC[C@@H]3[C@H](c3ccccc3)[C@]1(C)C(=O)N2 | 99.3% (inactive)
2 | COc1ccc(C(=O)NC2CCCc3c2cnn3-c2ccccc2F)o1 (stereo not drawn) | 86.3% (inactive)
3 | O=C(NC(=Nc1nc2ccccc2o1)NC(=O)c1ccccc1)c1ccccc1 | 102% (inactive)
4 | CCC1Nc2ncnc(N3CCN(c4ccccn4)CC3)c2N(Cc2ccc(Br)cc2)C1=O (stereo not drawn) | 85.4% (inactive)
5 | CCC1Nc2ncnc(N3CCN(c4ccccc4)CC3)c2N(Cc2ccccc2)C1=O (stereo not drawn) | 103% (inactive)
6 | COc1ccc(S(=O)(=O)N2CCCCC2)cc1NC(=O)c1ccc(CS(C)(=O)=O)cc1 | 99.1% (inactive)
7 | Cc1ccc(Cn2nnc3c(=O)[nH]c(C4CCN(S(=O)(=O)c5ccccc5)CC4)nc32)cc1 | 87.4% (inactive)
8 | COc1cc(CNC(C)(C)CO)cc(Br)c1OCc1ccc(Cl)cc1 | 130% (inactive)
9 | CCCOc1ccc(-c2nc(N3CCN(C)CC3)c3ccccc3n2)cc1 | 95.7% (inactive)
10 | CC(C)(C)c1ccc(-n2ncc3c2CCCC3NC(=O)c2cnccn2)cc1 (stereo not drawn) | 90.8% (inactive)
11 | Cc1ccc(Cn2nnc3c(=O)[nH]c(C4CCN(S(=O)(=O)c5ccc(C)cc5)CC4)nc32)cc1 | 91.7% (inactive)
12 | CCOC(=O)c1cnc(SC)nc1Oc1cccc(NC(=O)c2ccc(Cl)cc2)c1 | 90.9% (inactive)
13 | O=C1C(Cc2ccccc2)Nc2ncnc(N3CCN(c4ccccc4)CC3)c2N1Cc1ccc(Cl)cc1 (stereo not drawn) | 97.1% (inactive)
14 | CCCCOc1ccc(C(=O)NCC(=O)OCC(=O)c2c(N)n(C)c(=O)n(C)c2=O)cc1 | 89% (inactive)
15 | CCCCCCCCCC[N+](C)(C)CC/C=C1/c2ccccc2Sc2ccc(Cl)cc21 | 105% (inactive)
16 | Cc1ccc(Cn2nnc3c(=O)[nH]c(C4CCN(S(=O)(=O)c5ccc(F)cc5)CC4)nc32)cc1 | 116% (inactive)
17 | Cc1ccc(CN2C(=O)C(Cc3ccccc3)Nc3ncnc(N4CCN(c5ccccc5)CC4)c32)cc1 (stereo not drawn) | 111% (inactive)
18 | COc1ccc(N2C(=O)CC(N3CCN(c4ccc(C(=O)c5cccnc5)cc4)CC3)C2=O)cc1 (stereo not drawn) | 88.6% (inactive)
19 | COC(=O)c1ccc(CN2CCC(Oc3cccc(C(=O)N4CCCC4)c3)CC2)cc1 | 95.7% (inactive)
20 | O=C(NNc1cc(N2CCCC2)nc(N2CCCC2)n1)c1ccc([N+](=O)[O-])cc1 | 95.7% (inactive)

Row | SMILES | fluorescence response, % of control
21 | CC(C)C(=O)N1CCC2(CC1)Oc1ccc(Cl)cc1C(=O)C21CC(c2ccc(Cl)cc2)=NO1 (stereo not drawn) | 111% (inactive)
22 | COc1ccc(NC(=O)Nc2cccc3c2O[C@H](CN(C)C(=O)NC2CCCCC2)[C@@H](C)CN([C@H](C)CO)C3=O)cc1 | 80.3% (inactive)
23 | CCCOc1ccc(/C=c2\sc3nc(-c4ccco4)nn3c2=O)cc1OCC | 95.1% (inactive)
24 | Cc1ccc(CN(Cc2cccnc2)C(=O)CN2C(=O)COc3ccccc32)o1 | 96.1% (inactive)
25 | O=C(NC1CCCc2c1cnn2-c1ccccc1F)c1ccccn1 (stereo not drawn) | 81.2% (inactive)
26 | CCOc1ccc(OCC)c(NS(=O)(=O)c2ccc3c(c2)CCN3C(=O)C2CCC2)c1 | 80.8% (inactive)
27 | C#CC[N+](C)(C)CCCCCCCCCCCC | 117% (inactive)
28 | COc1ccc(C(=O)NC2CC(C)(C)Cc3c2cnn3-c2ccccc2)c(OC)c1 (stereo not drawn) | 115% (inactive)
29 | CCCCc1nnc(NC(=O)COc2ccc3c(C)cc(=O)oc3c2)s1 | 134% (inactive)
30 | Cc1cc(O)c(C(C)C)cc1C1(c2cc(C(C)C)c(O)cc2C)OC(=O)c2ccccc21 | 99.8% (inactive)
31 | CCOc1cc2[nH]c(=S)n(CCC(=O)NCc3ccc(OC)cc3)c(=O)c2cc1OCC | 93.1% (inactive)
32 | CCn1ncc(Br)c1C(=O)Nc1sc2c(c1C(=O)OC)CCC2 | 117% (inactive)
33 | CCOc1cccc(-c2nc(C(N)=O)c3[nH]c(=O)n(-c4cccc(Cl)c4)c3n2)c1O | 102% (inactive)
34 | Cc1ccc2c(c1)[C@H]1[C@H](CO2)[C@H](c2ccccc2)[C@]2(C)C(=O)Nc3cc(F)c(F)cc3C(=O)N12 | 90.5% (inactive)
35 | COCCn1c(=S)[nH]c2sc3c(c2c1=O)CCCC3 | 91.7% (inactive)
36 | COC(=O)c1ccc(CSc2nnc3c(n2)[nH]c2ccccc23)cc1 | 139% (inactive)
37 | Cc1cccc(C)c1NC(=O)C1CC2CCC1C2 (stereo not drawn) | 102% (inactive)
38 | COc1ccc(/C=N/N=C2/NC(=O)C(CC(=O)O)S2)cc1OCc1ccc(Cl)cc1 (stereo not drawn) | 91.7% (inactive)
39 | Cc1ccc(-c2c3c([nH]c(=S)c2C#N)CCCC3)o1 | 162% (inactive)
40 | COc1ccc(/C=C/C(=O)Nc2cccc(S(=O)(=O)N3CCCC3)c2)cc1OC | 103% (inactive)

Row | SMILES | fluorescence response, % of control
41 | O=C(NCC1CCCO1)c1ccc(Br)c(S(=O)(=O)N2CCOCC2)c1 (stereo not drawn) | 96.3% (inactive)
42 | Cc1cccc(NC(=O)c2nc[nH]c2C(=O)N[C@H](C)c2ccccc2)c1 | 92.4% (inactive)
43 | CC(CCc1ccccc1)NC(=O)c1ccc(NC(=O)c2cccc(Br)c2)cc1 (stereo not drawn) | 88.6% (inactive)
44 | COc1ccc2nccc(/C=C/c3ccnc4ccc(OC)cc34)c2c1 | 126% (inactive)
45 | CCc1ccc(C2=NN(S(C)(=O)=O)C(c3cccs3)C2)cc1 (stereo not drawn) | 113% (inactive)
46 | COc1cccc(CN(CC(=O)NCC2CCCO2)C(=O)CCC(=O)Nc2cc(C)on2)c1 (stereo not drawn) | 103% (inactive)
47 | C[C@@]12C(=O)Nc3ccc(F)cc3C(=O)N1[C@H]1c3cc(Cl)ccc3OC[C@@H]1[C@@H]2c1ccccc1 | 104% (inactive)
48 | CCCCOc1ccc(NC2=NC3(CCCC3)N=C(N)N2)cc1 | 73.8% (inactive)
49 | O=C(c1ccc2c(c1)OCO2)N1CCC2(CC1)Oc1ccc(F)cc1C(=O)C21CC(c2ccccc2)=NO1 (stereo not drawn) | 139% (inactive)
50 | Cc1cc(C)cc(-n2ncc3c2CCCC3NC(=O)c2cc(C)[nH]n2)c1 (stereo not drawn) | 96.3% (inactive)
51 | CCOC(=O)CC(=O)c1cc(OC)c(OC)c(OC)c1 | 96.1% (inactive)
52 | COC(=O)C1=C(C)N=c2s/c(=C/c3ccoc3)c(=O)n2C1c1ccccc1 (stereo not drawn) | 821% (inactive)
53 | COc1ccc(-c2nc(C(N)=O)c3[nH]c(=O)n(-c4ccccc4OC)c3n2)c(OC)c1 | 74% (inactive)
54 | COc1cccc(-c2sc3ccc(OC)cc3c2-c2ccc(OCCN3CCOCC3)cc2)c1 | 92.4% (inactive)
55 | COc1ccc(CCOC(=O)c2ccc(N)c([N+](=O)[O-])c2)cc1 | 110% (inactive)
56 | O=C(COC(=O)c1c2ccccc2cc2ccccc12)Nc1ncc(C(F)(F)F)cc1Cl | 96.4% (inactive)
57 | COc1ccc2sc(-c3ccccc3OC)c(-c3ccc(OCCN4CCOCC4)cc3)c2c1 | 81.8% (inactive)
58 | O=C(c1ccc2c(c1)OCO2)N1CCC2(CC1)Oc1ccc(Cl)cc1C(=O)C21CC(c2ccccc2)=NO1 (stereo not drawn) | 90.9% (inactive)

From PubChem BioAssay AID588620 (NMMLSC, 2011)
